Measured values: patent publication US20240181081A1, “Compositions and Methods for Treatment of Myotonic Dystrophy Type 1 with CRISPR/SACAS9” (Vertex Pharmaceuticals Incorporated, priority 2021, published 2024)

How the values were obtained:
[1] = system: CTG repeat expansion in the 3′ UTR of human DMPK gene; test: DOUBLE-cut screening: CTG repeat excision by loss-of-signal ddPCR in primary DM1 patient myoblasts; assay type: cell-based; conditions: sgRNA pair RNP, mean of upstream and downstream ddPCR assays; for % of CTG repeat excision efficiency by ddPCR (DNA-PKi): 3 μM Compound 6 for 48 hrs; for % of CTG repeat excision efficiency by ddPCR (Vehicle): DMSO 48 hrs
Summary of the method: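 Paired upstream/downstream sgRNAs, each as RNP with recombinant SaCas9 (20 pmol protein:60 pmol sgRNA), mixed 1:1 and nucleofected into primary DM1 myoblasts; cells then given DMSO or 3 μM DNA-PKi Compound 6 for 48 hrs. Genomic DNA taken 72 hrs post-nucleofection; excision is mean of upstream and downstream loss-of-signal ddPCR, normalized to DMPK exon 1 reference.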

[2] = system: CUG RNA foci in primary DM1 patient myoblasts; test: DOUBLE-cut screening: FISH staining of RNA foci in primary DM1 patient myoblasts; assay type: cell-based, human; conditions: sgRNA pair RNP, 72 hrs post nucleofection; for % of CUG foci free nuclei (DNA-PKi): 3 μM Compound 6 for 48 hrs; for % of CUG foci free nuclei (Vehicle): DMSO 48 hrs
Summary of the method: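 Primary DM1 patient myoblasts nucleofected with paired upstream/downstream sgRNA–SaCas9 RNPs (20 pmol protein, 60 pmol sgRNA each), then treated 48 hrs with DMSO or 3 μM DNA-PK inhibitor. At 72 hrs post nucleofection, CUG foci stained by Cy3-PNA(CAG)5 FISH with MBNL1 co-staining and quantified by high-content confocal imaging.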

Row | Substance | % of CTG repeat excision efficiency by ddPCR (DNA-PKi) [1] | % of CTG repeat excision efficiency by ddPCR (Vehicle) [1] | % of CUG foci free nuclei (DNA-PKi) [2] | % of CUG foci free nuclei (Vehicle) [2]
1 | SaU3 + SaD11: SaCas9 sgRNA pair, SEQ ID NOs: 3 and 19 (guide 1 ACTCCGGGGCCCCGTTGGAAGA; guide 2 CAAAACGTGGATTGGGGTTGTT; listed as DNA, chemistry not fully specified) | 58.33% | 32.84% | 73.87% | 50.28%
2 | SaU7 +SaD11: SaCas9 sgRNA pair, SEQ ID NOs: 7 and 19 (guide 1 CGCGGCCGGCGAACGGGGCTCG; guide 2 CAAAACGTGGATTGGGGTTGTT; listed as DNA, chemistry not fully specified) | 51.90% | 25.10% | 73.38% | 36.96%
3 | SaU3 + SaD20: SaCas9 sgRNA pair, SEQ ID NOs: 3 and 28 (guide 1 ACTCCGGGGCCCCGTTGGAAGA; guide 2 AGATGGAGGGCCTTTTATTCGC; listed as DNA, chemistry not fully specified) | 64.44% | 40.12% | 83.99% | 72.56%
4 | SaU2 + SaD2: SaCas9 sgRNA pair, SEQ ID NOs: 2 and 10 (guide 1 ACTCAGTCTTCCAACGGGGCCC; guide 2 TCGGCCAGGCTGAGGCCCTGAC; listed as DNA, chemistry not fully specified) | 56.39% | 52.26% | 83.29% | 81.76%
5 | SaU3 + SaD5: SaCas9 sgRNA pair SaU3 and SaD5; table prints SEQ ID NOS: 2 and 13 (guide 1 ACTCCGGGGCCCCGTTGGAAGA; guide 2 GGGTTTGGCAAAAGCAAATTTC; listed as DNA, chemistry not fully specified) | 60.74% | 43.61% | 84.63% | 73.56%
6 | SaU7 + SaD4: SaCas9 sgRNA pair, SEQ ID NOs: 7 and 12 (guide 1 CGCGGCCGGCGAACGGGGCTCG; guide 2 ACTTTGCGAACCAACGATAGGT; listed as DNA, chemistry not fully specified) | 73.99% | 57.96% | 87.34% | 74.84%
7 | SaU2 + SaD17: SaCas9 sgRNA pair, SEQ ID NOs: 2 and 25 (guide 1 ACTCAGTCTTCCAACGGGGCCC; guide 2 TTTATTCGCGAGGGTCGGGGGT; listed as DNA, chemistry not fully specified) | 52.34% | 31.11% | 78.68% | 55.20%
8 | SaU4 + SaD7: SaCas9 sgRNA pair, SEQ ID NOs: 4 and 15 (guide 1 CCAGTTCACAACCGCTCCGAGC; guide 2 GGGGCGCGGGATCCCCGAAAAA; listed as DNA, chemistry not fully specified) | 55.59% | 39.17% | 78.79% | 58.50%
9 | SaU7 + SaD6: SaCas9 sgRNA pair, SEQ ID NOs: 7 and 14 (guide 1 CGCGGCCGGCGAACGGGGCTCG; guide 2 CTTTTGCCAAACCCGCTTTTTC; listed as DNA, chemistry not fully specified) | 55.71% | 22.54% | 67.73% | 24.89%
